# In article PMC8459971, “Evaluation of the hepatotoxicity of the novel GPR40 (FFAR1) agonist CPL207280 in the rat and monkey” (PLoS ONE, 2021):
# Values joined by “and” are separate entries in the source; they are usually repeats but may differ in a detail not shown here. Equal entries are not always repeated.
# What was measured:
# OATP1B1 = target: T1, OATP1B1 (Homo sapiens, UniProt Q9Y6L6); assay: Uptake transporter inhibition assay, OATP1B1
# T1 sequence (Q9Y6L6 1-691): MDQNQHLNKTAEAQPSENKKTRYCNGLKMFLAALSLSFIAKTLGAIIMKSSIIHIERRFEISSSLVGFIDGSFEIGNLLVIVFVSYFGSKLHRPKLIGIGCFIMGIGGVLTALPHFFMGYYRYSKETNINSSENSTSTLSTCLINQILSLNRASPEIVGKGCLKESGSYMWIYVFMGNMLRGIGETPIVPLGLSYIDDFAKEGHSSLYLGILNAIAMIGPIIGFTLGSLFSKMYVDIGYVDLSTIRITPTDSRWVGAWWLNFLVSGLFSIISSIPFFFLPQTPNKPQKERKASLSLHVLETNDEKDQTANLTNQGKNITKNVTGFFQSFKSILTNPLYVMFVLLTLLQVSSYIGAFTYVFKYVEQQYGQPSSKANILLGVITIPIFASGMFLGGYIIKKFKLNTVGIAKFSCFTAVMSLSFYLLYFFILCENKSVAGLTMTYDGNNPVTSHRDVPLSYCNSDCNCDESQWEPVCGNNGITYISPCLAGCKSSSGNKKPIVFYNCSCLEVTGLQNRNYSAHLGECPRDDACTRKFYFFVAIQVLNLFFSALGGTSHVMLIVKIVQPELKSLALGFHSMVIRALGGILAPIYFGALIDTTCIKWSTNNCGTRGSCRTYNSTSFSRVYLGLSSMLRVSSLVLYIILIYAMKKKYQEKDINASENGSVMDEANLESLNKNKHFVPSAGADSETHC
# Description: For the uptake transporter inhibition assay, cells were washed twice with 100 μL of the appropriate buffer (HK, pH 7.4) for OATP1B1, followed by HBSS (pH 7.4) for (NTCP, OAT1, OAT2v1, OATP1A2, and OATP1B3). Uptake experiments were carried out at 37 ± 1°C in 50 μL of the respective buffer containing the probe substrate and the compound or solvent. […] After the experiment, cells were washed twice with 100 μL of cold appropriate buffer and lysed with 50 μL of 0.1 M NaOH. Radiolabeled probe substrate transport was determined by measuring an aliquot (35 μL) from each well for liquid scintillation counting.
# MRP4 = target: T2, MRP4 (Homo sapiens, UniProt O15439); assay: Vesicular transport inhibition assay, MRP4; conditions: for Accumulation (counts per minute; CPM) with AMP / Accumulation (counts per minute; CPM) with ATP: MRP4;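 further: membrane vesicles with MRP4 incubated with compound and probe substrate plus 4 mM ATP, or AMP as passive-diffusion background, vesicular substrate uptake read by liquid scintillation counting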;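 on Accumulation (counts per minute; CPM) with AMP: ATP 4 mM vs AMP background separates transporter uptake from diffusion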;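 on Accumulation (counts per minute; CPM) with ATP: ATP 4 mM vs AMP background separates transporter uptake from diffusion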
# T2 sequence (O15439 1-1325): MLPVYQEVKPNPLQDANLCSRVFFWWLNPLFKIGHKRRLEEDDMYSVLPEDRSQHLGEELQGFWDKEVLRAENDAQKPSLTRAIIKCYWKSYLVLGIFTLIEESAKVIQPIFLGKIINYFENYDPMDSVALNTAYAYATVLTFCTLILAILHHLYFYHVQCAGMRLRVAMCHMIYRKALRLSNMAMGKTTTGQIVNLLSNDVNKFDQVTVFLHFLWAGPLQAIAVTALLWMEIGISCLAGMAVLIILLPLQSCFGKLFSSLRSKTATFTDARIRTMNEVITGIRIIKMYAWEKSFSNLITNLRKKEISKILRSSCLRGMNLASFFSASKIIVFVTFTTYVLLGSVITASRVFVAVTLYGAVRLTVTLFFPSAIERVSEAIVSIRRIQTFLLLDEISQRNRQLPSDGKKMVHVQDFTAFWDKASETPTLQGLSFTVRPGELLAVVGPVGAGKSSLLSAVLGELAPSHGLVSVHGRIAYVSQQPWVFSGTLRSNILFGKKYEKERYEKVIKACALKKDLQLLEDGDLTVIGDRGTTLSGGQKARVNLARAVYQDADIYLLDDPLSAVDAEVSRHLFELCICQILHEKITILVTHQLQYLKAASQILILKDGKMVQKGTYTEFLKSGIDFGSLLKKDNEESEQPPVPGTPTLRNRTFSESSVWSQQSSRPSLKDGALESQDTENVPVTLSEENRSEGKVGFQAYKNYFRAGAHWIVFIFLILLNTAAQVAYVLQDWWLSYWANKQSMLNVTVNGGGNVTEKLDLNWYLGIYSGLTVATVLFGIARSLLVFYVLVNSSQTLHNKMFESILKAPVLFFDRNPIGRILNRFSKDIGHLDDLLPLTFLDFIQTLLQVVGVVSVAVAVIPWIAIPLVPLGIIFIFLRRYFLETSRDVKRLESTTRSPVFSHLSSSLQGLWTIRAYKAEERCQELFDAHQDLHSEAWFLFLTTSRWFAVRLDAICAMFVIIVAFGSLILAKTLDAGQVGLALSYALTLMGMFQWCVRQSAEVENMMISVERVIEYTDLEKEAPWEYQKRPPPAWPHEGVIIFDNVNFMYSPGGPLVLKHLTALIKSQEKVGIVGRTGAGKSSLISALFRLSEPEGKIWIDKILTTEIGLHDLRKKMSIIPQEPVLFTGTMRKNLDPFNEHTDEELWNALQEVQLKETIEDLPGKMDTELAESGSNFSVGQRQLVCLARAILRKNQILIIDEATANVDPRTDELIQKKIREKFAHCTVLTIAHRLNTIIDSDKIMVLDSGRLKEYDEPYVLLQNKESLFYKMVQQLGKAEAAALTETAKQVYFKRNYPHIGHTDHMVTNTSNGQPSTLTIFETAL
# Description: In the vesicular transport inhibition assay (for BSEP, MRP) compounds were incubated with membrane vesicle preparations and the probe substrate. Incubations were carried out in the presence of 4 mM ATP or AMP to distinguish between transporter-mediated uptake and passive diffusion into the vesicles. For MRP2 and MRP3, reactions were carried out in the presence of 2 mM glutathione. Compounds were added to the reaction mixture in 0.75 μL of solvent (1% of the final incubation volume). […] Reactions were initiated by the addition of 25 μL of 12 mM MgATP (or 12 mM AMP in assay buffer as a background control) and preincubated separately. Reactions were quenched by the addition of 200 μL of ice-cold washing buffer and immediate filtration via glass fiber filters mounted on a 96-well plate (filter plate). The filters were washed (5 × 200 μL of ice-cold washing buffer), dried, and the amount of substrate inside the filtered vesicles was determined by liquid scintillation counting.
# HepG2 cells = assay: Respiration in hepatocytes (Seahorse XF Mito stress test); type: cell-based, human
smiles,measurement,setting,value
"Cc1cc(OCCCS(C)(=O)=O)cc(C)c1-c1cccc(COc2ccc3c(c2)OC[C@H]3CC(=O)O)c1 [TAK-875, fasiglifam, reference compound]",IC50,OATP1B1,0.49 µM
same,IC50,MRP4,6.9 µM
same,Accumulation (counts per minute; CPM) with AMP,MRP4; conc 0.07 µM,1270 CPM and 1266 CPM
same,Accumulation (counts per minute; CPM) with ATP,MRP4; conc 0.07 µM,5265 CPM and 5304 CPM
same,Accumulation (counts per minute; CPM) with AMP,MRP4; conc 0.21 µM,1193 CPM and 1241 CPM
same,Accumulation (counts per minute; CPM) with ATP,MRP4; conc 0.21 µM,5360 CPM and 5232 CPM
same,Accumulation (counts per minute; CPM) with AMP,MRP4; conc 0.62 µM,1249 CPM and 1265 CPM
same,Accumulation (counts per minute; CPM) with ATP,MRP4; conc 0.62 µM,5330 CPM and 5164 CPM
same,Accumulation (counts per minute; CPM) with AMP,MRP4; conc 16.67 µM,1183 CPM and 1161 CPM
same,Accumulation (counts per minute; CPM) with ATP,MRP4; conc 16.67 µM,1970 CPM and 2307 CPM
same,Accumulation (counts per minute; CPM) with AMP,MRP4; conc 50.00 µM,1007 CPM and 1016 CPM
same,Accumulation (counts per minute; CPM) with ATP,MRP4; conc 50.00 µM,1338 CPM and 1487 CPM
same,"oxygen consumption rate, mito stress tracing","HepG2 cells; Fig2 B, HepG2, 0,3 uM, 61.3509 min",201.605
same,ECAR (Extracellular Acidification Rate),"HepG2 cells; HepG2, 30 uM, replicates",1.734
same,effect on maximal respiratory capacity after FCCP,"HepG2 cells; HepG2, Seahorse XF",dose-dependent reduction in maximal respiratory capacity
same,EC50,"HepG2 cells; Homo sapiens, HepG2, Seahorse XF, read-out: EC50 of acidification of media (ECAR)",46 µM
